Test results published in ChEMBL document CHEMBL4308841, “Synthesis, in vitro antiproliferative activity, and kinase inhibitory effects of pyrazole-containing diarylureas and diarylamides” (Eur J Med Chem, 2018).

Assays:
[1] = test system: SK-MEL-2; assay: Growth inhibition of human SK-MEL-2 cells assessed as cell growth at 10 uM incubated for 48 hrs by sulforhodamine B assay relative to control; assay type: functional; details: SK-MEL-2, 48 h, read-out: Activity
[2] = test system: RPMI-8226; assay: Growth inhibition of human RPMI8226 cells incubated for 48 hrs by sulforhodamine B assay; assay type: functional, cell-based; details: RPMI-8226, 48 h
[3] = test system: NCI-H226; assay: Growth inhibition of human NCI-H226 cells incubated for 48 hrs by sulforhodamine B assay; assay type: functional, cell-based; details: NCI-H226, 48 h
[4] = test system: SK-MEL-2; assay: Growth inhibition of human SK-MEL-2 cells incubated for 48 hrs by sulforhodamine B assay; assay type: functional, cell-based; details: SK-MEL-2, 48 h
[5] = test system: SK-MEL-28; assay: Growth inhibition of human SK-MEL-28 cells incubated for 48 hrs by sulforhodamine B assay; assay type: functional, cell-based; details: SK-MEL-28, 48 h
[6] = test system: OVCAR-3; assay: Growth inhibition of human OVCAR3 cells incubated for 48 hrs by sulforhodamine B assay; assay type: functional, cell-based; details: OVCAR-3, 48 h
[7] = test system: Hs-578T; assay: Growth inhibition of human Hs578T cells incubated for 48 hrs by sulforhodamine B assay; assay type: functional, cell-based
[8] = test system: K562; assay: Growth inhibition of human K562 cells assessed as cell growth at 0.01 uM incubated for 48 hrs by sulforhodamine B assay relative to control; assay type: functional; details: K562, 48 h, read-out: Activity
[9] = test system: SF-295; assay: Growth inhibition of human SF295 cells assessed as cell growth at 0.01 uM incubated for 48 hrs by sulforhodamine B assay relative to control; assay type: functional; details: SF-295, 48 h, read-out: Activity
[10] = test system: Malme-3M; assay: Growth inhibition of human MALME-3M cells assessed as cell growth at 0.01 uM incubated for 48 hrs by sulforhodamine B assay relative to control; assay type: functional; details: read-out: Activity
[11] = test system: SK-MEL-5; assay: Growth inhibition of human SK-MEL-5 cells assessed as cell growth at 0.01 uM incubated for 48 hrs by sulforhodamine B assay relative to control; assay type: functional; details: SK-MEL-5, 48 h, read-out: Activity
[12] = test system: OVCAR-3; assay: Growth inhibition of human OVCAR3 cells assessed as cell growth at 0.01 uM incubated for 48 hrs by sulforhodamine B assay relative to control; assay type: functional; details: OVCAR-3, 48 h, read-out: Activity
[13] = test system: OVCAR-8; assay: Growth inhibition of human OVCAR8 cells assessed as cell growth at 0.01 uM incubated for 48 hrs by sulforhodamine B assay relative to control; assay type: functional; details: OVCAR-8, 48 h, read-out: Activity
[14] = test system: 786-0; assay: Growth inhibition of human 786-0 cells assessed as cell growth at 0.01 uM incubated for 48 hrs by sulforhodamine B assay relative to control; assay type: functional; details: 786-0, 48 h, read-out: Activity
[15] = test system: ACHN; assay: Growth inhibition of human ACHN cells assessed as cell growth at 0.01 uM incubated for 48 hrs by sulforhodamine B assay relative to control; assay type: functional; details: read-out: Activity
[16] = test system: SNB-75; assay: Growth inhibition of human SNB75 cells assessed as cell growth at 0.1 uM incubated for 48 hrs by sulforhodamine B assay relative to control; assay type: functional; details: SNB-75, 48 h, read-out: Activity
[17] = test system: SK-MEL-28; assay: Growth inhibition of human SK-MEL-28 cells assessed as cell growth at 0.1 uM incubated for 48 hrs by sulforhodamine B assay relative to control; assay type: functional; details: SK-MEL-28, 48 h, read-out: Activity
[18] = test system: UACC-62; assay: Growth inhibition of human UACC62 cells assessed as cell growth at 0.1 uM incubated for 48 hrs by sulforhodamine B assay relative to control; assay type: functional; details: UACC-62, 48 h, read-out: Activity
[19] = test system: SK-OV-3; assay: Growth inhibition of human SKOV3 cells assessed as cell growth at 0.1 uM incubated for 48 hrs by sulforhodamine B assay relative to control; assay type: functional; details: SK-OV-3, 48 h, read-out: Activity
[20] = test system: MDA-MB-468; assay: Growth inhibition of human MDA-MB-468 cells assessed as cell growth at 0.1 uM incubated for 48 hrs by sulforhodamine B assay relative to control; assay type: functional; details: MDA-MB-468, 48 h, read-out: Activity
[21] = test system: HL-60(TB); assay: Growth inhibition of human HL-60(TB) cells assessed as cell growth at 1 uM incubated for 48 hrs by sulforhodamine B assay relative to control; assay type: functional; details: HL-60, 48 h, read-out: Activity
[22] = test system: COLO 205; assay: Growth inhibition of human COLO205 cells assessed as cell growth at 1 uM incubated for 48 hrs by sulforhodamine B assay relative to control; assay type: functional; details: COLO 205, 48 h, read-out: Activity
[23] = test system: HCC 2998; assay: Growth inhibition of human HCC2998 cells assessed as cell growth at 1 uM incubated for 48 hrs by sulforhodamine B assay relative to control; assay type: functional; details: HCC 2998, 48 h, read-out: Activity
[24] = test system: HCT-116; assay: Growth inhibition of human HCT116 cells assessed as cell growth at 1 uM incubated for 48 hrs by sulforhodamine B assay relative to control; assay type: functional; details: HCT-116, 48 h, read-out: Activity
[25] = test system: OVCAR-4; assay: Growth inhibition of human OVCAR4 cells assessed as cell growth at 1 uM incubated for 48 hrs by sulforhodamine B assay relative to control; assay type: functional; details: OVCAR-4, 48 h, read-out: Activity
[26] = test system: NCI-H23; assay: Growth inhibition of human NCI-H23 cells assessed as cell growth at 100 uM incubated for 48 hrs by sulforhodamine B assay relative to control; assay type: functional; details: NCI-H23, 48 h, read-out: Activity
[27] = test system: Malme-3M; assay: Growth inhibition of human MALME-3M cells assessed as cell growth at 100 uM incubated for 48 hrs by sulforhodamine B assay relative to control; assay type: functional; details: read-out: Activity
[28] = test system: IGROV-1; assay: Growth inhibition of human IGROV1 cells assessed as cell growth at 100 uM incubated for 48 hrs by sulforhodamine B assay relative to control; assay type: functional; details: IGROV-1, 48 h, read-out: Activity
[29] = read-out: LC50 (the source's name)
[30] = read-out: pLC50 (the source's name) (converted)

## COc1cc(Cl)cc(-c2nn(-c3cccc(NC(=O)c4ccc(N5CCOCC5)c(C(F)(F)F)c4)c3)cc2-c2ccncc2)c1
[1]
  growth at 10 µM: 64.9%
[2]
  IC50: 1.5 µM
[2]; read-out: GI50
  GI50: 1.5 µM
[2]; [29]
  CC50: > 100 µM
[2]; read-out: TGI
  TGI: > 100 µM
[2]; read-out: pGI50 (converted)
  GI50: 1.51 µM
[2]; [30]
  CC50: > 100 µM
[2]; read-out: pTGI (converted)
  TGI: > 100 µM
[3]; read-out: GI50
  GI50: 9.34 µM
[3]; read-out: LC50
  LC50: > 100 µM
[3]; read-out: TGI
  TGI: > 100 µM
[3]; read-out: pGI50 (converted)
  GI50: 93.3 µM
[3]; read-out: pLC50 (converted)
  LC50: > 100 µM
[3]; read-out: pTGI (converted)
  TGI: > 100 µM
[4]; read-out: GI50
  GI50: 2.11 µM
[4]; [29]
  CC50: > 100 µM
[4]; read-out: TGI
  TGI: > 100 µM
[4]; read-out: pGI50 (converted)
  GI50: 26.3 µM
[4]; [30]
  CC50: > 100 µM
[4]; read-out: pTGI (converted)
  TGI: > 100 µM
[5]; read-out: GI50
  GI50: 1.48 µM
[5]; [29]
  CC50: > 100 µM
[5]; read-out: TGI
  TGI: > 100 µM
[5]; read-out: pGI50 (converted)
  GI50: 14.8 µM
[5]; [30]
  CC50: > 100 µM
[5]; read-out: pTGI (converted)
  TGI: > 100 µM
[6]
  IC50: 53.1 µM
[6]; read-out: GI50
  GI50: 5.31 µM
[6]; [29]
  CC50: > 100 µM
[6]; read-out: TGI
  TGI: > 100 µM
[6]; read-out: pGI50 (converted)
  GI50: 53.7 µM
[6]; [30]
  CC50: > 100 µM
[6]; read-out: pTGI (converted)
  TGI: > 100 µM
[7]; read-out: GI50
  GI50: 5.48 µM
[7]; [29]
  CC50: > 100 µM
[7]; read-out: TGI
  TGI: > 100 µM
[7]; read-out: pGI50 (converted)
  GI50: 6.46 µM
[7]; [30]
  CC50: > 100 µM
[7]; read-out: pTGI (converted)
  TGI: > 100 µM
[8]
  growth at 0.01 µM: 100%
[9]
  growth at 0.01 µM: 90%
[10]
  growth at 0.01 µM: 91%
[11]
  growth at 0.01 µM: 97%
[12]
  growth at 0.01 µM: 100%
[13]
  growth at 0.01 µM: 99%
[14]
  growth at 0.01 µM: 96%
[15]
  growth at 0.01 µM: 100%
[16]
  growth at 0.1 µM: 54%
[17]
  growth at 0.1 µM: 103%
[18]
  growth at 0.1 µM: 91%
[19]
  growth at 0.1 µM: 102%
[20]
  growth at 0.1 µM: 92%
[21]
  growth at 1 µM: 105%
[22]
  growth at 1 µM: 104%
[23]
  growth at 1 µM: 100%
[24]
  growth at 1 µM: 90%
[25]
  growth at 1 µM: 94%
[26]
  growth at 100 µM: 38%
[27]
  growth at 100 µM: 23%
[28]
  growth at 100 µM: 54%

## COc1cc(Cl)cc(-c2nn(-c3cccc(NC(=O)Nc4cc(C(F)(F)F)cc(C(F)(F)F)c4)c3)cc2-c2ccncc2)c1
[1]
  growth at 10 µM: -38.1%
[2]
  IC50: 0.24 µM
[2]; read-out: GI50
  GI50: 0.238 µM
[2]; [29]
  CC50: > 100 µM
[2]; read-out: TGI
  TGI: 0.76 µM
[2]; read-out: pGI50 (converted)
  GI50: 0.234 µM
[2]; [30]
  CC50: > 100 µM
[2]; read-out: pTGI (converted)
  TGI: 0.759 µM
[3]
  IC50: 0.7 µM
[3]; read-out: GI50
  GI50: 0.704 µM
[3]; read-out: LC50
  LC50: > 100 µM
[3]; read-out: TGI
  TGI: 5.17 µM
[3]; read-out: pGI50 (converted)
  GI50: 0.708 µM
[3]; read-out: pLC50 (converted)
  LC50: > 100 µM
[3]; read-out: pTGI (converted)
  TGI: 5.13 µM
[4]
  IC50: 0.66 µM
[4]; read-out: GI50
  GI50: 0.658 µM
[4]; read-out: TGI
  TGI: 2.7 µM
[4]; read-out: pGI50 (converted)
  GI50: 0.661 µM
[4]; [30]
  CC50: 9.33 µM
[4]; read-out: pTGI (converted)
  TGI: 2.69 µM
[5]
  IC50: 0.9 µM
[5]; read-out: GI50
  GI50: 0.9 µM
[5]; read-out: TGI
  TGI: 4.93 µM
[5]; read-out: pGI50 (converted)
  GI50: 0.891 µM
[5]; [30]
  CC50: 69.2 µM
[5]; read-out: pTGI (converted)
  TGI: 4.9 µM
[6]
  IC50: 0.33 µM
[6]; read-out: GI50
  GI50: 0.334 µM
[6]; read-out: TGI
  TGI: 1.41 µM
[6]; read-out: pGI50 (converted)
  GI50: 0.331 µM
[6]; [30]
  CC50: 34.7 µM
[6]; read-out: pTGI (converted)
  TGI: 1.41 µM
[7]
  IC50: 1.4 µM
[7]; read-out: GI50
  GI50: 1.4 µM
[7]; read-out: TGI
  TGI: 7.26 µM
[7]; read-out: pGI50 (converted)
  GI50: 1.45 µM
[7]; [30]
  CC50: > 100 µM
[7]; read-out: pTGI (converted)
  TGI: 7.24 µM
[8]
  growth at 0.01 µM: 97%
[9]
  growth at 0.01 µM: 95%
[10]
  growth at 0.01 µM: 92%
[11]
  growth at 0.01 µM: 100%
[12]
  growth at 0.01 µM: 105%
[13]
  growth at 0.01 µM: 99%
[14]
  growth at 0.01 µM: 96%
[15]
  growth at 0.01 µM: 103%
[16]
  growth at 0.1 µM: 74%
[17]
  growth at 0.1 µM: 102%
[18]
  growth at 0.1 µM: 92%
[19]
  growth at 0.1 µM: 105%
[20]
  growth at 0.1 µM: 89%
[21]
  growth at 1 µM: 14%
[22]
  growth at 1 µM: 24%
[23]
  growth at 1 µM: 38%
[24]
  growth at 1 µM: 7%
[25]
  growth at 1 µM: 30%
[26]
  growth at 100 µM: -58%
[27]
  growth at 100 µM: -39%
[28]
  growth at 100 µM: -42%
